Measured values reported in ChEMBL document CHEMBL1201862, “PubChem BioAssay data set” (2004).
Active and inactive are the calls of the source.

Legend:
[1] = cytotoxicity toward HCT116 cells – cell-based, CellTiter-Glo luminescence, IC50, dose response (AID 1117332); format: functional; conditions: HCT-116
[2] = cytotoxicity toward HT-29 cells – cell-based, CellTiter-Glo luminescence, IC50, dose response (AID 1117330); format: functional
[3] = CellTiter-Glo luminescent dose response of DLD-1 viability loss (AID 1117352); format: functional
[4] = SNU-C1 cell viability reduction, dose response, CellTiter-Glo luminescence (AID 1117323); format: functional, cell-based
[5] = RKO cell viability reduction, dose response, CellTiter-Glo luminescence (AID 1117322); format: functional
Cytochrome P450 2C9 = Cytochrome P450 2C9 (Homo sapiens, UniProt P11712); conditions: Potency
Cytochrome P450 2C9, sequence (P11712 whole entry): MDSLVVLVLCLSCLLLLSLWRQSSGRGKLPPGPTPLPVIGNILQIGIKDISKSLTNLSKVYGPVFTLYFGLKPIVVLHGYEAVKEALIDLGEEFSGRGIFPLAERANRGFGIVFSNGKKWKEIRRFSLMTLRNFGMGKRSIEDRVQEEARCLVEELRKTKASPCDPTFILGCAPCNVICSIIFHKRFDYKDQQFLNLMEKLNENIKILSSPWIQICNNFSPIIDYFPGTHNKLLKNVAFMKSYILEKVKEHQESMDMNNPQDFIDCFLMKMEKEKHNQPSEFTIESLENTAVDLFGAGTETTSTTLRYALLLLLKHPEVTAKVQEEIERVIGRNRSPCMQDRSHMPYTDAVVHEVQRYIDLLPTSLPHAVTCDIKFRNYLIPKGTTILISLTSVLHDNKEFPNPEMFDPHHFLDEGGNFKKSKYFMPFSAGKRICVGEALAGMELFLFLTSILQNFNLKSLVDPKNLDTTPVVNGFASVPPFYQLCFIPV

[6] = Concentration-dependent survival of SW480 colon cancer line, luminescence detection with CellTiter-Glo, half-maximal inhibitory concentration (AID 1117338); format: functional
[7] = cytotoxicity toward Colo320 cells – cell-based, CellTiter-Glo luminescence, IC50, dose response (AID 1117334); format: functional; conditions: COLO 320
cells [8] = format: functional, cell-based
[9] = target: Mitogen-activated protein kinase 10 (Homo sapiens, UniProt P53779); assay: Dose response biochemical screening assay for inhibitors of c-Jun N-Terminal Kinase 3 (JNK3). [Related pubchem assays: 746 ]
Mitogen-activated protein kinase 10, sequence (P53779 whole entry): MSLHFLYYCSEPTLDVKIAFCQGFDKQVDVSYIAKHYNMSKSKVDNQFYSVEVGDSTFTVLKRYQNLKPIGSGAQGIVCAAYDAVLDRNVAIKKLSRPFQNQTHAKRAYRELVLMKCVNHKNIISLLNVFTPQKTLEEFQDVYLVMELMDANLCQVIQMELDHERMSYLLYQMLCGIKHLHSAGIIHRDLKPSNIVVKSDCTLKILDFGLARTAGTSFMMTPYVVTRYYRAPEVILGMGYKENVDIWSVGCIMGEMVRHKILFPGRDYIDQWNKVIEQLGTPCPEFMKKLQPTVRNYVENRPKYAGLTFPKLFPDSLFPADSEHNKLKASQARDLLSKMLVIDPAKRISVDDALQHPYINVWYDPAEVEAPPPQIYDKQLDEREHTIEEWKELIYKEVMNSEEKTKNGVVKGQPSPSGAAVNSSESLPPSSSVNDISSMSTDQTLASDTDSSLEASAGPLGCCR

cells [10] = format: functional, cell-based; remark: listed apart in the source
[11] = target: 26S proteasome non-ATPase regulatory subunit 14 (Homo sapiens, UniProt O00487); assay: inhibition of proteasome subunit RPN11 – biochemical, fluorescence polarization, uHTS hits, confirmation (AID 602368); format: functional
26S proteasome non-ATPase regulatory subunit 14, sequence (O00487 whole entry): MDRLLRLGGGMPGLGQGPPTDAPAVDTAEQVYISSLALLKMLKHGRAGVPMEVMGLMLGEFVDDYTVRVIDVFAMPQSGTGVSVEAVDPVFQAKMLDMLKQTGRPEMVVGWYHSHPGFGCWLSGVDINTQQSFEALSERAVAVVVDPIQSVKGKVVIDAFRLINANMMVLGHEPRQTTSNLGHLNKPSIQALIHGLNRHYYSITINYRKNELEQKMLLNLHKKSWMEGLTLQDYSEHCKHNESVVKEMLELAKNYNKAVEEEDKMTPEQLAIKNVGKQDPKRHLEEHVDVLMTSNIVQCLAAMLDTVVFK

[12] = target: 72 kDa type IV collagenase (Homo sapiens, UniProt P08253); assay: Dose Response validation of uHTS RPN11 inhibitor hits using a MMP-2 Fluorescence assay.; format: functional
72 kDa type IV collagenase, sequence (P08253 whole entry): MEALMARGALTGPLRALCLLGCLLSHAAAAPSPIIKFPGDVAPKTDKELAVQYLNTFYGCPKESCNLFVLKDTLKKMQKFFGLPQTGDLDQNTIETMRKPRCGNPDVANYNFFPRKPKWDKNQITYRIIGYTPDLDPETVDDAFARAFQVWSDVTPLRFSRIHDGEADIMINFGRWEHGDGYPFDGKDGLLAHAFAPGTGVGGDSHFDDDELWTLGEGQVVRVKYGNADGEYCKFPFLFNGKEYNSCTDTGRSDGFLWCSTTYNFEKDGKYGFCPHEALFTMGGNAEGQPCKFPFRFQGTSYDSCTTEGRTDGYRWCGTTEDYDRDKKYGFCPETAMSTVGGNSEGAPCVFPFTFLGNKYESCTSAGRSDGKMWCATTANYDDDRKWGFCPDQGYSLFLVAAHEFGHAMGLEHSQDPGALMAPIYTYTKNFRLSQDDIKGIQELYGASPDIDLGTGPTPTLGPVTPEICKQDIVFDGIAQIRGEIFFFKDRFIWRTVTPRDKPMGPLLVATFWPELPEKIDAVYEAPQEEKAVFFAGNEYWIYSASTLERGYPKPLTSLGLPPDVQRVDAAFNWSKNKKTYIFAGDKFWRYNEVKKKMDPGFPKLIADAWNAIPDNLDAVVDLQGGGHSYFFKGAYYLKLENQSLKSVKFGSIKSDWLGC

[13] = target: T1, Tyrosine-protein phosphatase non-receptor type 7 (Homo sapiens, UniProt P35236); assay: inhibitors of human HePTP phosphatase, […], biochemical, absorbance, leukemia target (AID 521); format: functional
T1 sequence (P35236 whole entry): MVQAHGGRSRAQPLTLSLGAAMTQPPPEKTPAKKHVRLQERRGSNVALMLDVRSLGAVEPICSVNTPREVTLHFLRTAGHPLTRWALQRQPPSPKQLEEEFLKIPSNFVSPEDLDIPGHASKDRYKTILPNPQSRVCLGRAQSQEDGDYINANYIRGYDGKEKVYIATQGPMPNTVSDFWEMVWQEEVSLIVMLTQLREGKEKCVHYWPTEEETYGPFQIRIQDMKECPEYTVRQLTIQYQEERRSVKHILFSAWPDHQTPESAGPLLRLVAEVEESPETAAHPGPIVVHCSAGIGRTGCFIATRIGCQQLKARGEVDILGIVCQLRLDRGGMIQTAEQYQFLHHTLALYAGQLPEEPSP

Prothrombin = Prothrombin (Bos taurus, UniProt P00735); assay: thrombin inhibition, dose response, biochemical, fluorescence polarization, uHTS hits (AID 602369); format: functional
Vero [14] = assay: cells; format: functional; conditions: Chlorocebus sabaeus
Vero [15] = assay: host cell cytotoxicity of antiviral hits, dose response, cytotoxicity control for West Nile virus antiviral project, secondary assay (AID 1650); format: functional; conditions: Chlorocebus sabaeus
cells [16] = assay: cells
[17] = THP-1 cell cytotoxicity, dose response, cytotoxicity control for Vif-APOBEC3G degradation inhibitor project, THP-1 cells (AID 1117359); format: functional; conditions: Human immunodeficiency virus 1, THP-1
[18] = inhibitors of intracellular T. cruzi replication, confirmation, NIH3T3 host cells, beta-gal luminescence (AID 2044); format: functional, cell-based;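 note: intracellular parasites grown in NIH/3T3 mouse fibroblasts as host cells; luminescent beta-galactosidase reporter signal from transgenic T. cruzi replicating inside host cells; inhibitors lower the luminescence signal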
[19] = cytotoxicity toward NIH3T3 fibroblasts, dose response, counter-screen, cell-based, ATP luminescence, mouse fibroblasts (AID 2010); format: functional;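 note: cells exposed to compound for about 90 hours before reading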
[20] = Luminescence Cell-Based Dose Response to Identify Activators of Luciferase Translation or Activity in H4-C Neuroglioblastoma Cells. [Related pubchem assays: 1829 (Project Summary), 1814 (Primary HTS)]; format: functional
[21] = Luminescence Cell-Based Dose Response HTS to Identify Activators of Luciferase Translation or Activity in H4 […] Cells. [Related pubchem assays: 1829 (Project Summary), 1814 (Primary HTS)]; format: functional
[22] = Luminescence Cell-Based Dose Confirmation to Identify Activators of 5'UTR Stem-Loop Driven Alpha-Synuclein mRNA Translation in H4 Neuroglioblastoma Cells. [Related pubchem assays: 1829 (Project Summary), 1814 (Primary HTS)]; format: functional
Vero [23] = assay: cells; format: functional, cell-based; conditions: Chlorocebus sabaeus
[24] = Luminescence Cell-Based Dose Response to Identify Activators of 5'UTR Stem-Loop Driven Prion Protein mRNA Translation in H4-C Neuroglioblastoma Cells. [Related pubchem assays: 1829 (Project Summary), 1814 (Primary HTS)]; format: functional
Protein Tat = Protein Tat (Human immunodeficiency virus type 1 group M subtype B (isolate HXB2)(HIV-1), UniProt P04608); format: functional;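 note: tat binding to TAR RNA read out by fluorescence polarization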
Protein Tat, sequence (P04608 whole entry): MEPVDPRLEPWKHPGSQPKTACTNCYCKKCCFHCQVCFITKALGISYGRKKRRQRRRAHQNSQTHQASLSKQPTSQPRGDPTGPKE

Compound: CCc1cccc2c3c([nH]c12)C(CC)(CC(=O)O)OCC3 (configuration not stated) [ETODOLAC]
- IC50 [1]: > 20 µM (inactive)
- IC50 [2]: > 20 µM (inactive)
- IC50 [3]: > 20 µM (inactive)
- IC50 [4]: > 20 µM (inactive)
- IC50 [5]: > 20 µM (inactive)
- AC50 (Cytochrome P450 2C9): 39.8 µM (inconclusive)
- IC50 [6]: > 20 µM (inactive)
- IC50 [7]: > 20 µM (inactive)

Compound: c1ccc(-n2ncc3c(NCc4ccco4)ncnc32)cc1
- EC50 (cells [8]): > 350 µM (not active)
- IC50 [9]: 60.9 µM (not active)
- EC50 (cells [10]): > 350 µM (not active)

Compound: C#CCn1/c(=N/C(=O)c2cccs2)sc2cccc(OC)c21
- IC50 [11]: 24.9 µM (active)
- IC50 [12]: > 100 µM (inactive)
- IC50 [13]: > 100 µM (not active)
- IC50 (Prothrombin): > 100 µM (inactive)

Compound: O=C(CCN1C(=O)/C(=C\c2cccc(Br)c2)SC1=S)N1CCOCC1
- CC50 (Vero [14]): > 25 µM (active)
- CC50 (Vero [15]): 31.3 µM (active)

Compound: Cc1ccc(CNC(=O)CCC2CCCN(Cc3cc4ccccc4o3)C2)o1 (configuration not stated)
- EC50 (cells [16]): 0.222 µM (active)
- CC50 [17]: 33.8 µM (active)
- EC50 [18]: < 0.1 µM (active)
- EC50 [19]: > 30 µM (not active)

Compound: NC(=O)C1=C[C@H](C2CCCCC2)C[C@H](OCc2ccc(CO)cc2)O1
- EC50 [20]: > 12 µM (not active)
- EC50 [21]: < 0.1 µM (inconclusive)
- EC50 [22]: 0.558 µM (active)
- IC50 (Vero [23]): > 25 µM (active)
- EC50 [24]: 0.326 µM (active)

Compound: Cc1cc(S(=O)(=O)N(Cc2ccccn2)Cc2ccco2)ccc1-n1cnnn1
- IC50 (Protein Tat): > 100 µM (active)
